Laboratory results: PubChem BioAssay AID652241 (Broad Institute, 2013)
Records with an inconclusive call do not appear. Activity calls are given as the source filed them.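 The calls were made as follows: active = fitted curve reaches activity 50 in the expected rising direction at or below the top valid tested dose; inconclusive = no clear call, values can overlap the other calls; inactive = activity in the wrong direction, and the rest.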

target: Virion infectivity factor (Human immunodeficiency virus type 1 group M subtype B (isolate BH10)) + Virion infectivity factor (Human immunodeficiency virus type 1 group M subtype B (isolate BRU/LAI)) + Virion infectivity factor (Human immunodeficiency virus type 1 group M subtype B (isolate PCV12)) + Virion infectivity factor (Human immunodeficiency virus type 1 group M subtype B (isolate HXB2)) (UniProt P69720+P69721+P69722+P69723); assay: dose-dependent disruption of HIV Vif self-association – imaging, HEK293T, cherry-picks, dose response (AID 652241); conditions: HEK293T Vif multimerization imaging, 24 h;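 also: imaged cell signal that rises when Vif self-association is disrupted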
Sequence (P69720 whole entry, looked up): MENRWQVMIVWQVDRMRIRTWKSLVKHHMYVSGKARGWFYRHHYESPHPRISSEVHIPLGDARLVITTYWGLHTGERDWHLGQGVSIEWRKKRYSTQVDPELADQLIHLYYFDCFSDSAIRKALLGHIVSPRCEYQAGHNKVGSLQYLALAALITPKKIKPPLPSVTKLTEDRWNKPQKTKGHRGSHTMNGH
Sequence (P69721 whole entry, looked up): as the sequence (P69720 whole entry, looked up) above
Sequence (P69722 whole entry, looked up): as the sequence (P69720 whole entry, looked up) above
Sequence (P69723 whole entry, looked up): as the sequence (P69720 whole entry, looked up) above

AC50 | SMILES
5.92 µM | COc1ccc(CCNc2nnc(Sc3nnnn3-c3ccccc3)s2)cc1OC
> 19.5 µM (inactive) | Cc1nnc2ccc(-c3ccc(NS(=O)(=O)c4ccc(F)cc4F)cc3)nn12

same assay, conditions: HEK293T Vif multimerization imaging, 24 h; at 19.5 µM (top of the series)

SMILES | activity, higher = inhibition
O=C(CCCCn1ccc(=O)[nH]c1=O)Nc1ccc(O)c(C(=O)O)c1 | inactive
CN(C)c1ccc(/C=C/C(=O)c2ccc3c(c2)OCO3)cc1 | inactive
COc1ccc(Br)cc1C(=O)Nc1ccc(N2CCCC2)cc1 | inactive
O=c1sc(N2CCN(c3ccc(F)cc3)CC2)nc2ccsc12 | inactive
CC1CN(S(=O)(=O)c2cccc(C(=O)N3CCC(C(N)=O)CC3)c2)CC(C)O1 (centres undefined) | inactive
CC(C)OC(=O)c1cn(-c2ccccc2)nc1-c1ccc2c(c1)OCCO2 | inactive
CCOC(=O)C1=C(C)NC(=O)NC1 | inactive

Other lines, results leading:

activity, higher = inhibition | SMILES
inactive | O=C(Nc1nn[nH]n1)c1cc(-c2ccc(Cl)c(Cl)c2Cl)nc2ccccc12
inactive | O=C(CN(C(=O)c1csnn1)c1ccc(F)cc1)NCc1ccc2c(c1)OCO2
inactive | Cc1ccc(-c2cc(C(=O)NCc3ccccn3)c3ccccc3n2)cc1C
inactive | S=C(Nc1ccccc1)N1CCn2c(nc3ccccc32)C1
inactive | COc1ccc(-c2coc3cc(O)ccc3c2=O)cc1
